These results are taken from ChEMBL document CHEMBL1136029, “Inhibition of estrone sulfatase (ES) by derivatives of 4-[(aminosulfonyl)oxy] benzoic acid” (Bioorg Med Chem Lett, 2002).

Series [1] can be described thus: Dissociation constant determined by calculating its overall stability. Type of series: physicochemical.
In series [2] the target is T1, Steryl-sulfatase (Homo sapiens, UniProt P08842).
T1 sequence (P08842 whole entry): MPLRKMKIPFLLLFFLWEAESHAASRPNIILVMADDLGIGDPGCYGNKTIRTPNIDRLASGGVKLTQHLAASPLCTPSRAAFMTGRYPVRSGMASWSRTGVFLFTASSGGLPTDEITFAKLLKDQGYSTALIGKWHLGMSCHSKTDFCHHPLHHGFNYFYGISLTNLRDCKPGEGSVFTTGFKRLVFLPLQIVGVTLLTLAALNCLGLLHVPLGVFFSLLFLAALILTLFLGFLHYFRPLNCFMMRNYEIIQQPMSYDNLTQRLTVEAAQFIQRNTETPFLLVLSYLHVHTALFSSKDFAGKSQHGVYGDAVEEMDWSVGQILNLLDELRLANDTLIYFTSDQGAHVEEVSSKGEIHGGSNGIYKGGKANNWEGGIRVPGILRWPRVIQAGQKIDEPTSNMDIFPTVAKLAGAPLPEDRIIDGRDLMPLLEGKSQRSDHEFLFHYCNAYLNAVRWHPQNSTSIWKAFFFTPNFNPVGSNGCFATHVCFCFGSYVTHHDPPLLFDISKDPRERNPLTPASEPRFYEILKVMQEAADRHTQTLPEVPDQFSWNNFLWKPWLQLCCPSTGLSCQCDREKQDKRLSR
The experiment in a line: Inhibitory activity against Estrone Sulfatase.

Series [3] concerns the target T2, Steryl-sulfatase (Homo sapiens) (UniProt P08842).
T2 sequence (whole entry): T1 sequence (P08842 whole entry)
The experiment in a line: Compound was tested for the Inhibitory activity against the Estrone Sulfatase at a concentration of 10 uM.

The target of series [4] is T2, Steryl-sulfatase (Homo sapiens). Nature of the series: Compound was tested for the Inhibitory activity against the Estrone Sulfatase at a concentration of 50 uM.
Series [5] addresses T1, Steryl-sulfatase. Nature of the series: Inhibitory activity against Estrone sulfatase was determined.
The target of series [6] is T2, Steryl-sulfatase (Homo sapiens). The experiment in a line: Compound was tested for the Inhibitory activity against the Estrone sulfatase at a concentration of 50 uM.
For series [7] the target is unchanged. The experiment in a line: Compound was tested for the Inhibitory activity against the Estrone sulfatase at a concentration of 10 uM.

Regarding `CCCCOC(=O)c1ccc(OS(N)(=O)=O)cc1`, the pKa in series [1] is 8.07. The same compound had an IC50 in series [2] of 10.5 µM. Moreover, the inhibition in series [3] is 48.3%.
For `CCCCCCOC(=O)c1ccc(OS(N)(=O)=O)cc1` the same measures were 8.52, 3.8 µM and 72.6%.
Regarding `CCCOC(=O)c1ccc(OS(N)(=O)=O)cc1`, the pKa in series [1] is 8.03. Moreover, the values for the inhibition in series [4] and in series [3] were 76.9% and 42.6%, respectively. Besides, the midpoint of inhibition in series [2], the IC50, lay at 13.2 µM.
Consider `CCCCCCCCOC(=O)c1ccc(OS(N)(=O)=O)cc1`, for which the inhibition was 80.4% in series [4] and 63% in series [3]. In addition, 5 µM corresponded to half-maximal inhibition in series [2] (IC50).
With `CCCCCCCCCOC(=O)c1ccc(OS(N)(=O)=O)cc1`, the inhibition in series [4] turned out to be 76.2%. This compound showed an IC50 in series [2] of 4.8 µM.
Take `C[C@]12CC[C@@H]3c4ccc(OS(N)(=O)=O)cc4CCC3[C@@H]1CCC2=O` (single isomer, unassigned): the inhibition in series [3] came out at 68.6%.
As to `CCOC(=O)c1ccc(OS(N)(=O)=O)cc1`, the pKa in series [1] was 8.22. The values for the inhibition in series [4] and in series [3] were 63.4% and 25.6%, respectively. The same compound displayed an IC50 in series [2] of 31.6 µM.
For `CCCCCOC(=O)c1ccc(OS(N)(=O)=O)cc1` the same measures were 8.47, 86.2%, 64.4% and 5.9 µM.
On to `CCCCCCCCCCOC(=O)c1ccc(OS(N)(=O)=O)cc1`, for which half-maximal inhibition in series [2] (IC50) required 22.4 µM. In series [3], this compound yielded an inhibition of 36.5%.
Regarding `COC(=O)c1ccc(OS(N)(=O)=O)cc1`, the pKa in series [1] is 8.28. Also, the 50% inhibitory concentration (IC50) in series [5] worked out at 31.6 µM. The inhibition in series [6] was found to be 74.7%; in series [7], 25.4%.
Turning to `CCCCCCCOC(=O)c1ccc(OS(N)(=O)=O)cc1`, the pKa in series [1] was 8.27. For the same compound, the results for the inhibition in series [4] and in series [3] were 83.7% and 69.5%, respectively. In addition, the IC50 in series [2] was 3.4 µM.

The pKa is the pH at which an ionisable group is half protonated. One may read the IC50 as the concentration that gives 50% inhibition. High values mean weaker potency, low ones greater potency. The term inhibition denotes the percentage by which the read-out fell short of the control.
